Results from ChEMBL document CHEMBL2010752, “Synthesis and biological evaluation of benzoisothiazole derivatives possessing N,N-dimethylformimidamide group as 5-HT₆ receptor antagonists” (Bioorg Med Chem, 2012).

Key:
Assay type in all cases: functional, cell-based
[1] = target: T1, 5-hydroxytryptamine receptor 6 (Homo sapiens, UniProt P50406); assay: Antagonist activity at human recombinant 5HT6 receptor expressed in HeLa cells assessed as inhibition of 5HT-induced intracellular calcium level at 10 uM incubated for 15 mins prior to 5HT-induction measured after 1 hr by fluo-4-AM-based fluorimetry
[2] = target: T1, 5-hydroxytryptamine receptor 6; assay: Antagonist activity at human recombinant 5HT6 receptor expressed in HeLa cells assessed as inhibition of 5HT-induced intracellular calcium level incubated for 15 mins prior to 5HT-induction measured after 1 hr by fluo-4-AM-based fluorimetry
[3] = target: 5-hydroxytryptamine receptor 7 (Homo sapiens) (UniProt P34969); assay: Antagonist activity at human 5HT7 receptor expressed in HEK293 cells assessed as inhibition of 5HT-induced intracellular calcium level at 10 uM incubated for 15 mins prior to 5HT-induction measured after 1 hr by fluo-4-AM-based fluorimetry
[4] = target: T1, 5-hydroxytryptamine receptor 6; assay: Antagonist activity at human 5HT6 receptor expressed in HEK293 cells assessed as inhibition of 5HT-induced intracellular calcium level at 10 uM incubated for 15 mins prior to 5HT-induction measured after 1 hr by fluo-4-AM-based fluorimetry
[5] = target: 5-hydroxytryptamine receptor 4 (Homo sapiens) (UniProt Q13639); assay: Antagonist activity at human 5HT4 receptor expressed in HEK293 cells assessed as inhibition of 5HT-induced intracellular calcium level at 10 uM incubated for 15 mins prior to 5HT-induction measured after 1 hr by fluo-4-AM-based fluorimetry
Sequence of 5-hydroxytryptamine receptor 4 (Homo sapiens) (Q13639 whole entry): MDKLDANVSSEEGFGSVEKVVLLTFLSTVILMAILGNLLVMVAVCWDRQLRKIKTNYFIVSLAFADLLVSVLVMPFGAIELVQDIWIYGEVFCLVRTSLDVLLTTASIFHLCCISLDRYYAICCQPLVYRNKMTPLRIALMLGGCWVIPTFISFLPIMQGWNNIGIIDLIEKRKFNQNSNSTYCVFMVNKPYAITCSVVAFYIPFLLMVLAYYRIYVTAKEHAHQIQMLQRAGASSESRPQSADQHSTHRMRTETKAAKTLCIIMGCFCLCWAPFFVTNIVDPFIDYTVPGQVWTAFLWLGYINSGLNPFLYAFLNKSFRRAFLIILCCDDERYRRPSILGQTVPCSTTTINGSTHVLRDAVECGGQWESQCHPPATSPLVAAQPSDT

Sequence of 5-hydroxytryptamine receptor 7 (Homo sapiens) (P34969 whole entry): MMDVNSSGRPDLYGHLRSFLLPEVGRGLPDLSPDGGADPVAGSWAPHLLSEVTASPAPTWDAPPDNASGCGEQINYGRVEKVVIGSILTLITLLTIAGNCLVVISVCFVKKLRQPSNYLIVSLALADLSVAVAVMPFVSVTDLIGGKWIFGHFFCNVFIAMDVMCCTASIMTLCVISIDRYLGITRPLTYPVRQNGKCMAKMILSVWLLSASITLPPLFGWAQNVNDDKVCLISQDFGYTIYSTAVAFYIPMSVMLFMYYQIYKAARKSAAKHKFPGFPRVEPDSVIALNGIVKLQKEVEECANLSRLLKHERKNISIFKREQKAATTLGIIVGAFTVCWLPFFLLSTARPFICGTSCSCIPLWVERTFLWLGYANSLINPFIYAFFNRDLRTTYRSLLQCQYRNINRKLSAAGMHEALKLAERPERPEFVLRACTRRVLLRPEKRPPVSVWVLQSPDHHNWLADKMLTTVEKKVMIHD
T1 sequence (P50406 whole entry): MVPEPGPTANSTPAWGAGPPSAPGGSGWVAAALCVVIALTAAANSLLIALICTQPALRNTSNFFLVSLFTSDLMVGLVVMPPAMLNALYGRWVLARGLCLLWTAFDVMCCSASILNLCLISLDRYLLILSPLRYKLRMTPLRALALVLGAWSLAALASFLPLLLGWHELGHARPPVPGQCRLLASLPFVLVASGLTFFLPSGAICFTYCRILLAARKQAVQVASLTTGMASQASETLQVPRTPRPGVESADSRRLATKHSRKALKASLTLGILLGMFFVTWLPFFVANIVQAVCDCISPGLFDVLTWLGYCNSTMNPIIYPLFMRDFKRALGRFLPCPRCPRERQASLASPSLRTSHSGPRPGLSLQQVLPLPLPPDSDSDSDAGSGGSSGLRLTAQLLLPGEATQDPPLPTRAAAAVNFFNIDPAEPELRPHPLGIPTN

Compound	inhibition [1] [%]	IC50 [2] [µM]	inhibition [3] [%]	inhibition [4] [%]	inhibition [5] [%]
CN(C)/C=N/c1nsc2ccc(NS(=O)(=O)c3ccc(F)cc3)cc12	20.2	–	–	–	–
CN(C)/C=N/c1nsc2ccc(NS(=O)(=O)c3ccccc3)cc12	42.6	–	–	–	–
CN(C)/C=N/c1nsc2ccc(NS(=O)(=O)c3ccc4ccccc4c3)cc12	99.1	0.44	28.9	98.8	17.4
CN(C)/C=N/c1nsc2ccc(NS(=O)(=O)c3ccc([N+](=O)[O-])cc3)cc12	9.8	–	–	–	–
CN(C)/C=N/c1nsc2ccc(NS(=O)(=O)c3cccc4ccccc34)cc12	43.5	–	–	–	–
CN(C)/C=N/c1nsc2ccc(NS(=O)(=O)c3cccc4cccnc34)cc12	12.1	–	–	–	–
Cc1ccc(S(=O)(=O)Nc2ccc3snc(/N=C/N(C)C)c3c2)cc1	84.3	0.36	68.8	86.5	21.9
CN(C)/C=N/c1nc2cc(NS(=O)(=O)c3cccc4ccccc34)ccc2s1	25.5	–	–	–	–
CN(C)/C=N/c1nc2cc(NS(=O)(=O)c3ccc4ccccc4c3)ccc2s1	66.3	–	–	–	–
CN(C)/C=N/c1nsc2ccc(NS(=O)(=O)c3c(F)cccc3F)cc12	10.8	–	–	–	–
CC(C)c1ccc(S(=O)(=O)Nc2ccc3snc(/N=C/N(C)C)c3c2)cc1	27	–	–	–	–
CN(C)/C=N/c1nsc2ccc(NS(=O)(=O)c3ccc(Cl)cc3)cc12	51.1	3.6	40.2	53.9	11.6
